Reference: paper PMC6747274, “Multifunctional Peptides from Spanish Dry-Cured Pork Ham: Endothelial Responses and Molecular Modeling Studies” (International Journal of Molecular Sciences, 2019)
Values joined by “and” are separate entries in the source; they are usually repeats but may differ in a detail not shown here. Identical values can stand only once. “Also recorded” adds a separate entry of the source. Where no end group is shown, it is not given here.

What was measured:
[1] = system: ICAM-1 mRNA, EA.hy926 cells; test: ICAM-1 mRNA expression by RT-PCR in EA.hy926 cells; assay type: cell-based, human; conditions: 100 ng/mL TNF-α alone, 6 h; p < 0.05
Method: (§1) EA.hy926 cells, the hybrid human umbilical vein endothelial cell line, were obtained from the American Type Culture Collection (ATCC® CRL2922™, Rockville, MD, USA). Cells were cultured in high glucose Dulbecco’s Modified Eagle’s Medium (DMEM), containing 10% heat-inactivated fetal bovine serum (FBS, Biowest, Riverside, CA, USA) and 50 U/mL of penicillin and 50 µg/mL streptomycin (Sigma Aldrich Chemical Co., Saint Louis, MO, USA). Cells were grown in 5% CO2 in a humidified air incubator at 37 °C. Subculture was performed when 90% confluence was reached.
(§2) EA.hy926 were seeded in six-well plates at 0.25 × 10^6 cells/well in DMEM supplemented with 5% FBS. Cells were treated with 300 µM of each peptide for 16 h. Then, 100 ng/mL TNF-α or 300 µM H2O2 were added for an additional 6 h or 24 h, respectively.
(§3) Total RNA was extracted from EA.hy926 cells using 300 µL Trisure™ (Bioline, Taunton, MA, USA) reagent and Direct-zol™ RNA MiniPrep (Zymo Research Irvine, Irvine, CA, USA) according to the manufacturer’s protocol. […] The mRNA levels of the target genes were quantified by RT-PCR using SensiFAST SYBER Hi-ROX Kit (Bioline, Taunton, MA, USA) with StepOnePlus Real-Time PCR System (Applied Biosystems, Foster City, CA, USA). […]
(§4) The relative quantification of gene expression was determined by the comparative fold change […] method. […]

[2] = system: VCAM-1 mRNA, EA.hy926 cells; test: VCAM-1 mRNA expression by RT-PCR in EA.hy926 cells; assay type: cell-based, human; conditions: 100 ng/mL TNF-α alone, 6 h; p < 0.05
Method: as §1, §2
(§5) Total RNA was extracted from EA.hy926 cells using 300 µL Trisure™ (Bioline, Taunton, MA, USA) reagent and Direct-zol™ RNA MiniPrep (Zymo Research Irvine, Irvine, CA, USA) according to the manufacturer’s protocol. Total RNA was reverse-transcribed into complementary DNA (Sensifast cDNATM Synthesis kit, Bioline, Taunton, MA, USA). The mRNA levels of the target genes were quantified by RT-PCR using SensiFAST SYBER Hi-ROX Kit (Bioline, Taunton, MA, USA) with StepOnePlus Real-Time PCR System (Applied Biosystems, Foster City, CA, USA). Briefly, 5 µL of 1:5 diluted cDNA was added to the qPCR reaction containing 10 μL 2X SensiFAST Mix and 400 nM of each primer in a total volume of 20 μL.
(§6) Specific and validated primers for human glyceraldehyde-3-phosphate dehydrogenase (GADPH), intercellular adhesion marker-1 (ICAM-1), vascular cell adhesion marker-1 (VCAM-1), endothelial nitric oxide synthase (eNOS), interleukin 6 (IL-6), catalase, SOD (Super Oxide Dismutase), NADPH (Nicotinamide Adenine Dinucleotide Phosphate oxidase) and Bax (proapoptosis regulator) genes were used (Sigma-Aldrich Chemical Co., Saint Louis, MO, USA). […]
as §4

[3] = system: IL-6 mRNA, EA.hy926 cells; test: IL-6 mRNA expression by RT-PCR in EA.hy926 cells; assay type: cell-based, human
Method: as §1, §2, §3, §4

[4] = system: eNOS mRNA, EA.hy926 cells; test: eNOS mRNA expression by RT-PCR in EA.hy926 cells; assay type: cell-based, human
Method: as §1, §2, §5, §6, §4

[5] = system: ICAM-1 surface expression, EA.hy926 cells; test: ICAM-1 surface expression by flow cytometry (MFI); assay type: cell-based, human
Method: as §1, §2
To measure adhesion molecule content in human endothelial cells by flow cytometry, the cell monolayer was detached and fixed before immunofluorescence labelling. The following antibodies were used per sample: 20 µL anti-ICAM-1/CD54-phycoerythrin (PE) (clone HA58, BD Biosciences, Franklin Lakes, NJ, USA) and 5 µL anti-VCAM-1/CD106-PerCP-Cy5.5 (clone 51–10C9; BD Biosciences, San Jose, CA, USA), according to the manufacturer’s protocol. Stained cells (10,000 events) were examined by flow cytometry (FACS Calibur, Becton Dickinson, Mountain View, CA, USA) in a simultaneous two-color analysis with FL2 (PE) and FL3 (PerCP-Cy5.5) channels. Markers were set according to the negative controls to quantify the percentage of positively stained cells. Mean Fluorescence Intensity (MFI) was calculated for each antigen (MFI of total stained cells-MFI of negative control cells).

[6] = system: VCAM-1 surface expression, EA.hy926 cells; test: VCAM-1 surface expression by flow cytometry; assay type: cell-based, human; conditions: 100 ng/mL TNF-α alone
Method: as §1, §2
To measure adhesion molecule content in human endothelial cells by flow cytometry, the cell monolayer was detached and fixed before immunofluorescence labelling. […] Markers were set according to the negative controls to quantify the percentage of positively stained cells. Mean Fluorescence Intensity (MFI) was calculated for each antigen (MFI of total stained cells-MFI of negative control cells).

[7] = system: ICAM-1 protein, EA.hy926 cells; test: Intracellular ICAM-1 protein by western blot; assay type: cell-based, human; conditions: 100 ng/mL TNF-α alone
Method: as §2
Supplementary Material and Methods
1.1. Human ACE Inhibitio n Assa y
Before transfection, the endothelial ACE expressio n level was very low and the p roduct of the enzymatic reaction undete ctable, and so a recombinant construct e ncodi ng the Myc-Tag fused to the ACE ge ne was used. T o overexpress the ACE enzyme, EA.hy926 cel ls were seeded in 24-well plates at 80,000 cells/well and transiently transfec ted with a human Ace ORF mammali an expression plasmid (Sinobiological, Beijing, China) using trans-it X2 reagent ( Myrus®, Madi son, […]
Wisconsin, USA). […] The effi ciency of […]
transfecti on was checked by immunofluorescence. Briefly, 48 h post-transfection, cells were fixed with 4% paraformaldehyd e in culture medi um for 15 min at room temperatur e, blocked with 1% bo vine seru m albumin (BSA) in phosph ate buffer for 30 min followed by 0.2% sapo nin for 30 min to permeabil ize the membr ane. […]
The mRNA level s of the target genes (ICAM-1, VCAM-1, IL-6, eNOS, SOD, catal ase, NADPH, BAX) were quantified by RT-PCR using Se nsiFAST SYBER Hi-ROX Kit (Bioline, Taunton, USA) with StepOnePlus Real-Time PCR Sy stem (Appl ied Bi osystems, Foster City, CA, USA) using speci fi c and vali dated pri mers (Si gma-Al drich Chemical Co., Saint Louis, MO, USA).
The tetr azolium assay (MTT) was used to estimate the cel l viability in the presence of synthetic pepti des (up to 600 µM) and 300 µM H2O2. […] The formazan crystals formed in the intact cel ls were dissol ved in 200 µL dimethyl sulfoxide (DMSO) for 30 min and the absorbance was measured in a micro plate reader at 570 nm and 620 nm of reference. Results wer e calculated as cel l viability (%) = average optic density (OD) of wells/ave rage OD of control wells. […]

[8] = system: inflammatory markers (IL-6 and eNOS); conditions: spontaneous hypertensive rats, DNA microarray; cited from earlier work
Excerpt: In fact, multifunctional peptides interfere with more than one biological pathway, such as NO production, oxidative stress, and inflammation. […] Our interest in the use of an in vitro model of endothelial dysfunction was to further understand the reg ...

EA.hy926 cells = test: Annexin V / propidium iodide apoptosis and necrosis by FACS; assay type: cell-based, human; conditions: 300 µM H2O2 alone, three independent experiments, mean ± SD
Method: as §2
ApoScreen Annexin V Apoptosis Kit-FITC (Southern Biotech, Birmingham, AL, USA) was used to detect the apoptosis rate. After the co-incubation of synthetic peptides and 300 µM H2O2, 0.4 × 10^6 cells were detached and washed in cold PBS, then resuspended in 100 µL Annexin V binding buffer and treated following the manufacturer’s protocol. Annexin V-fluorescein isothiocyanate (FITC) binding was assessed in FL1 channel simultaneously with propidium iodide (FL2 channel). This test discriminates among intact cells (FITC−/PI−), apoptotic cells (FITC+/PI−), and necrotic cells (FITC+/PI+). Assays were performed in triplicate (Table S1).

BAX mRNA, EA.hy926 cells = test: BAX mRNA expression by RT-PCR in oxidative conditions; assay type: cell-based, human; conditions: 300 µM H2O2 alone, 24 h; p = 0.02
Method: as §2
as §5, with “μL. […]” for “μL.”
as §4

[9] = system: protein carbonylation, EA.hy926 cells; test: Protein carbonylation (Oxyblot immunoblotting); assay type: cell-based, human; conditions: 300 µM H2O2 alone, 30 min
Method: Protein carbonyl content is the most general and well-used biomarker of severe oxidative protein damage. Cel ls were treated with synthetic pepti des for 16 h before adding 300 µM H2O2 and leaving for additional 30 min. Protein carbonyl groups level s wer e determined by immuno blotting using the Oxyblot Protein Oxidation Detecti on Kit (Millipore Merck, Temecul a, CA, USA) according to the manufacturer’s protocol. PVDF membranes were blocked with 1% BSA in PBS–0.05% Tween 20 (v/v) (PBS-T) for 1 h at room temperature. The blots were incubated overnight at 20 °C with the polyclonal antibody. Subsequently, blots were washed (3–5 times) with PBS-T and incubated with goat anti-rabbit IgG/HRP c onjugate (1∶300 dilution in PBS/BSA) (Sigma-Al drich Chemical Co., Saint Louis, MO, USA) for 1 h at room temperature. […] In this condition, no signal was detected in the PVDF membr anes (data no t shown). The e mitted chemiluminescent signals wer e detected using a di gital imaging system (Im ageQuant LAS500, Thermo FisherScientific Inc., Rockford, IL, USA) after automatic exposition time. Quantitation of the densitometry plots for chemiluminescence detecti on was c arried out using ImageJ software for the analysis of 1D gels. Peaks were drawn from the di stinct western-blot bands, the area were calculated and normalized to co ntrol conditions.

human ACE = human ACE (Homo sapiens, UniProt P12821); test: Human ACE inhibition assay (lysate of ACE-transfected EA.hy926 cells, HHL substrate, HPLC)
[10] = 100 ng/mL TNF-α alone, 6 h, p < 0.05

Chain of human ACE (P12821 30-1306): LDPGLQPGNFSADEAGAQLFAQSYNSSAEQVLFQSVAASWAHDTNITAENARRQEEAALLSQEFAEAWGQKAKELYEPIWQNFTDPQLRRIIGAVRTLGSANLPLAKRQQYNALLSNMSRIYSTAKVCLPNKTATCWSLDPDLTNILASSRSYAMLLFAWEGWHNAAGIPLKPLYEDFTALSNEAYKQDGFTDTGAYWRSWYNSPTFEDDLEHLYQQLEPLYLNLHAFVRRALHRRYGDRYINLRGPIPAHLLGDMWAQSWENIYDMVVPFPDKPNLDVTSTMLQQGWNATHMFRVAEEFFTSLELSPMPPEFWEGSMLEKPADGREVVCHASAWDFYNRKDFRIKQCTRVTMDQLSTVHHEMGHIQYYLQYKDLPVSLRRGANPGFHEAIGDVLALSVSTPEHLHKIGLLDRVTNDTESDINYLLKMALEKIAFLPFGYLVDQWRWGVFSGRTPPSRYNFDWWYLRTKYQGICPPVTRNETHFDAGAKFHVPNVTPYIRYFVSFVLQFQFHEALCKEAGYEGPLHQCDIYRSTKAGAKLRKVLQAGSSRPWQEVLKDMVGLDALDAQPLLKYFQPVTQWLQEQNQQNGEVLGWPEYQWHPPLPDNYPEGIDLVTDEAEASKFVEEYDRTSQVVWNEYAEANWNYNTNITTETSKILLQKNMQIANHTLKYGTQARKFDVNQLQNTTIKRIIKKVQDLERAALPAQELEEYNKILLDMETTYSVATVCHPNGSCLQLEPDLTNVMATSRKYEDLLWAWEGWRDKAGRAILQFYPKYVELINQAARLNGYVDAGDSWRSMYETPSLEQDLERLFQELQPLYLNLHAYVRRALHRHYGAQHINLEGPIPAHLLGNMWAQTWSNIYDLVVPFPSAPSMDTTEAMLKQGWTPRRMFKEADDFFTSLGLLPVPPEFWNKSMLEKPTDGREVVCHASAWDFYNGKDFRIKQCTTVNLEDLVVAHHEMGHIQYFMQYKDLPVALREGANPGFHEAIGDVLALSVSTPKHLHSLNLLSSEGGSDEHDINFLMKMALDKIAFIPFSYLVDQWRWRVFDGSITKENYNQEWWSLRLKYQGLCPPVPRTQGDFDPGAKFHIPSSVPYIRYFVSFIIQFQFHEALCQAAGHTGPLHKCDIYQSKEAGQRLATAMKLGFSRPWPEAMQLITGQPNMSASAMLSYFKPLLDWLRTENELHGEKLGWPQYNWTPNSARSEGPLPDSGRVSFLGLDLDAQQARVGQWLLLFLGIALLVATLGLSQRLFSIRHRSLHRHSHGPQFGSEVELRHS

TNF-α
ICAM-1 mRNA expression vs control [1]: increased | VCAM-1 mRNA expression vs control [2]: increased | IL-6 mRNA expression vs control [3, 10]: increased | eNOS mRNA expression vs control [4, 10]: decreased | ICAM-1 MFI ([5]; 100 ng/mL TNF-α alone, six independent experiments, mean ± SD, p = 0.0003 vs control (71.36 ± 8.31)): 1271.91 ± 158.54 | ICAM-1 MFI on cell surface (in words) ([5]; TNF-α alone vs control, p = 0.0003): increase | VCAM-1 surface staining after TNF-α [6]: undetected; also recorded: hardly detectable | expression of 82–85 kDa protein corresponding to ICAM-1 (western blot) [7]: induced

Val-Pro-Pro [VPP, milk-derived peptide]
inflammatory markers (IL-6 and eNOS) [8]: decrease in inflammatory markers (IL-6 and eNOS)

OO [H2O2, reference compound]
IL-6 mRNA expression upregulation ([3]; 300 µM H2O2 alone, 24 h, p = 0.001): 1.84 fold | eNOS mRNA expression increase ([4]; 300 µM H2O2 alone, 24 h, p = 0.01): 3.3 fold | Necrosis (AnV+/PI+), % cells (EA.hy926 cells; p = 0.01 vs control (1.45 ± 0.24)): 18.56 ± 3.38% and 18% | Apoptosis (AnV+/PI-), % cells (EA.hy926 cells; p = 0.03 vs control (0.90 ± 0.36)): 10.37 ± 1.33% and 10% | BAX expression increase (BAX mRNA, EA.hy926 cells): 1.5 fold | protein carbonylation level [9]: significantly increased

Ile-Pro-Pro [IPP, milk-derived peptide]
inflammatory markers (IL-6 and eNOS) [8]: decrease in inflammatory markers (IL-6 and eNOS)

KPGRP [BP3]
IC50 (human ACE): 486 ± 43.5 µM

KPVAAP [BP1]
IC50 (human ACE): 59.2 ± 3.8 µM
